Test results as given in publication PMC7835878, “A Selective Competitive Inhibitor of Aldehyde Dehydrogenase 1A3 Hinders Cancer Cell Growth, Invasiveness and Stemness In Vitro” (Cancers, 2021).

B1: human aldehyde dehydrogenase 1A3 (enzyme)
chain: MATANGAVENGQPDRKPPALPRPIRNLEVKFTKIFINNEWHESKSGKKFATCNPSTREQICEVEEGDKPDVDKAVEAAQVAFQRGSPWRRLDALSRGRLLHQLADLVERDRATLAALETMDTGKPFLHAFFIDLEGCIRTLRYFAGWADKIQGKTIPTDDNVVCFTRHEPIGVCGAITPWNFPLLMLVWKLAPALCCGNTMVLKPAEQTPLTALYLGSLIKEAGFPPGVVNIVPGFGPTVGAAISSHPQINKIAFTGSTEVGKLVKEAASRSNLKRVTLELGGKNPCIVCADADLDLAVECAHQGVFFNQGQCCTAASRVFVEEQVYSEFVRRSVEYAKKRPVGDPFDVKTEQGPQIDQKQFDKILELIESGKKEGAKLECGGSAMEDKGLFIKPTVFSEVTDNMRIAKEEIFGPVQPILKFKSIEEVIKRANSTDYGLTAAVFTKNLDKALKLASALESGTVWINCYNALYAQAPFGGFKMSGNGRELGEYALAEYTEVKTVTIKLGDKNP
notes: Aldehyde dehydrogenase 1A3 (ALDH1A3), human, recombinant; also called ALDH1A3; hALDH1A3; source: recombinant, purified

Assays:
[1] = target: T1, Aldehyde dehydrogenase 1A3 (ALDH1A3) (Homo sapiens, UniProt P47895); experiment: X-ray crystal structure of the complex with NR6 (protein preincubated with […] NAD+); type: binding
T1 sequence (P47895 2-512): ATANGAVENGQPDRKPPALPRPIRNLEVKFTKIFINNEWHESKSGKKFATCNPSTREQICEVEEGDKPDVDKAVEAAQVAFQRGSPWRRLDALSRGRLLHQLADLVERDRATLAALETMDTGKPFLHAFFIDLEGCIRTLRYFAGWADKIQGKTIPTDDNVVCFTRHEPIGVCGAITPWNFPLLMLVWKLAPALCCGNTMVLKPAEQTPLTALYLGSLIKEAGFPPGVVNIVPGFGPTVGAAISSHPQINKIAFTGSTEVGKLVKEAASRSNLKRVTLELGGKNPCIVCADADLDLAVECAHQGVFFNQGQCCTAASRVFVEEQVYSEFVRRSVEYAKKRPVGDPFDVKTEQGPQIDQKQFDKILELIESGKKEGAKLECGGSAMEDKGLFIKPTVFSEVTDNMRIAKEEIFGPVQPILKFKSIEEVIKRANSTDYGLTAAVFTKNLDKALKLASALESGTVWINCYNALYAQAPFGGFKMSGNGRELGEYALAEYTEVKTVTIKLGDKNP

[2] = target: the molecule itself; experiment: crystal structure; ALDH1A3 at 8 mg/mL preincubated with 1 mM NAD+ and 300 uM NR6; sitting drop vapor diffusion, 2.4 M sodium malonate pH 7.0, 20 °C; space group P2(1)22(1), two molecules per asymmetric unit

| Molecule | X-ray crystal structure of the complex with NR6 (protein preincubated with 1 mM) [1] | binding result [2] |
| --- | --- | --- |
| NC(=O)c1ccc[n+]([C@@H]2O[C@H](COP(=O)([O-])OP(=O)(O)OC[C@H]3O[C@@H](n4cnc5c(N)ncnc54)[C@H](O)[C@@H]3O)[C@@H](O)[C@H]2O)c1 [NAD+] | both are bonded with one molecule of NAD^+ and one molecule of NR6 | – |
| B1 | – | binds |
